Test results from patent US20250171447A1, “ADENOSINE RECEPTOR ANTAGONISTS, PHARMACEUTICAL COMPOSITIONS AND THEIR USE THEREOF” (Merck Sharp & Dohme LLC, priority 2022, published 2025).

molecular target: human A2A adenosine receptor (Homo sapiens (Human), UniProt P29274); assay: A2A receptor affinity binding assay (radioligand filtration binding or SPA, [3H]SCH58261); settings: membranes from HEK293 or CHO cells expressing human A2A; Method (A) filtration or Method (B) SPA
Sequence (P29274 whole entry): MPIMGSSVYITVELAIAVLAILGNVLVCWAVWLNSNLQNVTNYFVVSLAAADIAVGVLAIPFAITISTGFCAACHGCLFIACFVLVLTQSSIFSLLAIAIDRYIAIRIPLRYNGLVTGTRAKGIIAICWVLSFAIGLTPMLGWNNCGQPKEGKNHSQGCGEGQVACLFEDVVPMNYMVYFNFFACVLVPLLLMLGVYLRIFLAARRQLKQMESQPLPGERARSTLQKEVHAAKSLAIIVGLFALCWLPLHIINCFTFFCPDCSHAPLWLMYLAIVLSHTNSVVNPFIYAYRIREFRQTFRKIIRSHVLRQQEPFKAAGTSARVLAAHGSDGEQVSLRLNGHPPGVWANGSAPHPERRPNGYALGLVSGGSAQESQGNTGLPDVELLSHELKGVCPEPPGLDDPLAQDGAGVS

Row | IC50 [nM] | SMILES
1 | 4.1 | COc1cccc2c1nc(N)n1nc([C@H]3C[C@H](c4ccc([C@@H](N)C(F)F)cn4)C3)nc21 (single isomer, unassigned) [Ex-106]
2 | 8.2 | COc1cccc2c1nc(N)n1nc([C@H]3C[C@@H](c4ccc([C@@H](N)C(F)F)cn4)C3)nc21 (single isomer, unassigned) [Ex-107]
3 | 10.7 | COc1cccc2c1nc(N)n1nc([C@H]3C[C@H](c4ncc5c(n4)CNC5)C3)nc21 (single isomer, unassigned) [Ex-108, 2-((trans)-3-(6,7-dihydro-5H-pyrrolo[3,4-d]pyrimidin-2-yl)cyclobutyl)-7-methoxy-[1,2,4]triazolo[1,5-c]quinazolin-5-amine]
4 | 86.1 | COc1cccc2c1nc(N)n1nc([C@H]3C[C@@H](c4ncc5c(n4)CNC5)C3)nc21 (single isomer, unassigned) [Ex-109, 2-[(cis)-3-(6,7-dihydro-5H-pyrrolo[3,4-d]pyrimidin-2-yl)cyclobutyl]-7-methoxy[1,2,4]triazolo[1,5-c]quinazolin-5-amine]
5 | 16.7 | COc1cccc2c1nc(N)n1nc([C@H]3C[C@H](c4ncc5c(n4)CCNC5)C3)nc21 (single isomer, unassigned) [Ex-110, 7-methoxy-2-[(trans)-3-(5,6,7,8-tetrahydropyrido[4,3-d]pyrimidin-2-yl)cyclobutyl][1,2,4]triazolo[1,5-c]quinazolin-5-amine]
6 | 117 | COc1cccc2c1nc(N)n1nc([C@H]3C[C@@H](c4ncc5c(n4)CCNC5)C3)nc21 (single isomer, unassigned) [Ex-111, 7-methoxy-2-[(cis)-3-(5,6,7,8-tetrahydropyrido[4,3-d]pyrimidin-2-yl)cyclobutyl][1,2,4]triazolo[1,5-c]quinazolin-5-amine]
7 | 18.4 | COc1cccc2c1nc(N)n1nc([C@H]3C[C@@H](c4ccc(C(C)N)cn4)C3)nc21 (stereo partly drawn) [Ex-71, 2-{cis-3-[5-(1-aminoethyl)pyridin-2-yl]cyclobutyl}-7-methoxy[1,2,4]triazolo[1,5-c]quinazolin-5-amine]
8 | 7.9 | COc1cccc2c1nc(N)n1nc([C@H]3C[C@H](c4ccc(C(C)N)cn4)C3)nc21 (stereo partly drawn) [Ex-72, 2-{trans-3-[5-(1-aminoethyl)pyridin-2-yl]cyclobutyl}-7-methoxy[1,2,4]triazolo[1,5-c]quinazolin-5-amine]
9 | 4.8 | COc1cccc2c1nc(N)n1nc([C@H]3C[C@H](c4ccc(C(N)C(F)F)cn4)C3)nc21 (stereo partly drawn) [Ex-73, 2-{trans-3-[5-(1-amino-2,2-difluoroethyl)pyridin-2-yl]cyclobutyl}-7-methoxy[1,2,4]triazolo[1,5-c]quinazolin-5-amine]
10 | 4 | COc1cccc2c1nc(N)n1nc([C@H]3C[C@@H](c4ccc(C(N)C(F)F)cn4)C3)nc21 (stereo partly drawn) [Ex-74, 2-{cis-3-[5-(1-amino-2,2-difluoroethyl)pyridin-2-yl]cyclobutyl}-7-methoxy[1,2,4]triazolo[1,5-c]quinazolin-5-amine]
11 | 4.5 | COc1cccc2c1nc(N)n1nc([C@H]3C[C@@H](c4cc(C)c(C(C)(C)N)cn4)C3)nc21 [Ex-80, 2-{cis-3-[5-(2-aminopropan-2-yl)-4-methylpyridin-2-yl]cyclobutyl}-7-methoxy[1,2,4]triazolo[1,5-c]quinazolin-5-amine]
12 | 4.8 | COc1cccc2c1nc(N)n1nc([C@H]3C[C@H](c4cc(C)c(C(C)(C)N)cn4)C3)nc21 [Ex-81, 2-{trans-3-[5-(2-aminopropan-2-yl)-4-methylpyridin-2-yl]cyclobutyl}-7-methoxy[1,2,4]triazolo[1,5-c]quinazolin-5-amine]
13 | 27.7 | COc1cccc2c1nc(N)n1nc([C@H]3C[C@@H](c4ncc(C(C)(C)N)nc4C)C3)nc21 [Ex-89, 2-((1s,3s)-3-(5-(2-aminopropan-2-yl)-3-methylpyrazin-2-yl)cyclobutyl)-7-methoxy-[1,2,4]triazolo[1,5-c]quinazolin-5-amine]

Continued, compound first:

Row | SMILES | IC50 [nM]
14 | COc1cc(F)cc2c1nc(N)n1nc([C@H]3C[C@@H](c4ccccc4C(C)(C)O)C3)nc21 (single isomer, unassigned) [Ex-52] | 3
15 | COc1cccc2c1nc(N)n1nc([C@H]3C[C@@H](c4ccc(C(N)C(F)(F)F)cc4)C3)nc21 (single isomer, unassigned) [Ex-75, 2-{cis-3-[4-(1-amino-2,2,2-trifluoroethyl)phenyl]cyclobutyl}-7-methoxy[1,2,4]triazolo[1,5-c]quinazolin-5-amine] | 0.3
16 | COc1cccc2c1nc(N)n1nc([C@H]3C[C@@H](c4ccc(C(N)C(F)(F)F)cc4)C3)nc21 (single isomer, unassigned) [Ex-76, 2-{cis-3-[4-(1-amino-2,2,2-trifluoroethyl)phenyl]cyclobutyl}-7-methoxy[1,2,4]triazolo[1,5-c]quinazolin-5-amine] | 0.5
17 | COc1cccc2c1nc(N)n1nc([C@H]3C[C@@H](c4ncc(C(C)(C)N)cc4Cl)C3)nc21 (single isomer, unassigned) [Ex-88, 2-{cis-3-[5-(2-aminopropan-2-yl)-3-chloropyridin-2-yl]cyclobutyl}-7-methoxy[1,2,4]triazolo[1,5-c]quinazolin-5-amine] | 6.6
18 | COc1cccc2c1nc(N)n1nc([C@H]3C[C@H](c4ccc([C@@H](N)C(F)(F)F)cn4)C3)nc21 (single isomer, unassigned) [Ex-93] | 2.3
19 | COc1cccc2c1nc(N)n1nc([C@H]3C[C@@H](c4ccc([C@@H](N)C(F)(F)F)cn4)C3)nc21 (single isomer, unassigned) [Ex-94] | 3.8
20 | COc1cccc2c1nc(N)n1nc([C@H]3C[C@H](c4ccc([C@H](N)C(F)F)cn4)C3)nc21 (single isomer, unassigned) [Ex-104] | 2.6
21 | COc1cccc2c1nc(N)n1nc([C@H]3C[C@@H](c4ccc([C@H](N)C(F)F)cn4)C3)nc21 (single isomer, unassigned) [Ex-105] | 2.7
22 | COc1cccc2c1nc(N)n1nc([C@H]3C[C@H](c4ccc(C(C)(C)N)c(C)n4)C3)nc21 (single isomer, unassigned) [Ex-117, 2-{trans-3-[5-(2-aminopropan-2-yl)-6-methylpyridin-2-yl]cyclobutyl}-7-methoxy[1,2,4]triazolo[1,5-c]quinazolin-5-amine] | 8.1
23 | COc1cccc2c1nc(N)n1nc([C@H]3C[C@@H](c4ccc(C(C)(C)N)c(C)n4)C3)nc21 (single isomer, unassigned) [Ex-118, 2-{cis-3-[5-(2-aminopropan-2-yl)-6-methylpyridin-2-yl]cyclobutyl}-7-methoxy[1,2,4]triazolo[1,5-c]quinazolin-5-amine] | 4.8
24 | COc1cc(F)cc2c1nc(N)n1nc(C3CC3C(C)(C)O)nc21 (centres unmarked) [Ex-28, 2-(2-(5-amino-9-fluoro-7-methoxy-[1,2,4]triazolo[1,5-c]quinazolin-2-yl)cyclopropyl)propan-2-ol] | 1.5
25 | COc1cccc2c1nc(N)n1nc([C@H]3C[C@@H](c4ccc(C(C)(C)O)cc4)C3)nc21 [Ex-42, 2-(4-((1s,3s)-3-(5-amino-7-methoxy-[1,2,4]triazolo[1,5-c]quinazolin-2-yl)cyclobutyl)phenyl)propan-2-ol] | 0.6
26 | COc1cc(F)cc2c1nc(N)n1nc([C@H]3C[C@@H](c4ccc(C(C)(C)O)cc4)C3)nc21 [Ex-50, 2-{4-[cis-3-(5-amino-9-fluoro-7-methoxy [1,2,4]triazolo [1,5-c]quinazolin-2-yl)cyclobutyl]phenyl} propan-2-ol] | 1
27 | COc1cccc2c1nc(N)n1nc([C@H]3C[C@H](c4ccc([C@H](N)C(F)(F)F)cn4)C3)nc21 [Ex-77, 2-(trans-3-{5-[(1S)-1-amino-2,2,2-trifluoroethyl]pyridin-2-yl}cyclobutyl)-7-methoxy[1,2,4]triazolo[1,5-c]quinazolin-5-amine] | 1.3
28 | COc1cccc2c1nc(N)n1nc([C@H]3C[C@@H](c4ccc([C@H](N)C(F)(F)F)cn4)C3)nc21 [Ex-78, 2-(cis-3-{5-[(1S)-1-amino-2,2,2-trifluoroethyl]pyridin-2-yl}cyclobutyl)-7-methoxy[1,2,4]triazolo[1,5-c]quinazolin-5-amine] | 1.9
29 | COc1cccc2c1nc(N)n1nc([C@H]3C[C@H](c4ccc(C(N)C(F)(F)F)cc4)C3)nc21 (stereo partly drawn) [Ex-79, 2-{trans-3-[4-(1-amino-2,2,2-trifluoroethyl)phenyl]cyclobutyl}-7-methoxy[1,2,4]triazolo[1,5-c]quinazolin-5-amine] | 2.7
30 | COc1cccc2c1nc(N)n1nc([C@H]3C[C@@H](c4ncc(C(C)(C)N)cc4F)C3)nc21 [Ex-86, 2-{cis-3-[5-(2-aminopropan-2-yl)-3-fluoropyridin-2-yl]cyclobutyl}-7-methoxy[1,2,4]triazolo[1,5-c]quinazolin-5-amine] | 12.7
31 | COc1cccc2c1nc(N)n1nc([C@H]3C[C@@H](c4ccc(C(C)(N)C(F)F)nc4)C3)nc21 (some centres unmarked) [Ex-91, 2-{(1s,3s)-3-[6-(2-amino-1,1-difluoropropan-2-yl)pyridin-3-yl]cyclobutyl}-7-methoxy[1,2,4]triazolo[1,5-c]quinazolin-5-amine] | 1.1
32 | COc1cccc2c1nc(N)n1nc([C@H]3C[C@H](c4ccc(C(C)(N)C(F)F)nc4)C3)nc21 (some centres unmarked) [Ex-92, 2-{(1r,3r)-3-[6-(2-amino-1,1-difluoropropan-2-yl)pyridin-3-yl]cyclobutyl}-7-methoxy[1,2,4]triazolo[1,5-c]quinazolin-5-amine] | 14.1
33 | COc1cccc2c1nc(N)n1nc([C@H]3C[C@@H](c4ccc([C@@H](N)C(F)(F)F)nc4)C3)nc21 [Ex-95, 2-[(1s,3s)-3-{6-[(1R)-1-amino-2,2,2-trifluoroethyl]pyridin-3-yl}cyclobutyl]-7-methoxy[1,2,4]triazolo[1,5-c]quinazolin-5-amine] | 2.9
34 | COc1cccc2c1nc(N)n1nc(C3CC(c4ccc([C@@H](N)C(F)(F)F)nc4)C3)nc21 (stereo partly drawn) [Ex-96, 2-[(1r,3r)-3-{6-[(1R)-1-amino-2,2,2-trifluoroethyl]pyridin-3-yl}cyclobutyl]-7-methoxy[1,2,4]triazolo[1,5-c]quinazolin-5-amine] | 14
35 | COc1cccc2c1nc(N)n1nc([C@H]3C[C@@H](c4ccc(CN5CCNCC5)cc4)C3)nc21 [Ex-97, 7-methoxy-2-(cis-3-{4-[(piperazin-1-yl)methyl]phenyl}cyclobutyl)[1,2,4]triazolo[1,5-c]quinazolin-5-amine] | 0.3
